Data reported in patent US20040077580A1, “Antisense modulation of PI3K P85 Expression” (priority 2000, published 2004).
Strand notation (5' to 3'): a small letter for the sugar, then the base; units joined by * are phosphorothioate-linked, units joined directly phosphodiester-linked; [ ] holds rarer units or linkages, { } end groups; capitals alone tell only the bases. e = 2'-O-(2-methoxyethyl) (MOE); [5mC] = 5-methylcytosine; d = 2'-deoxy (DNA)

Each substance was assayed on human PI3K p85 RNA (assay: Inhibition of human PI3K p85 mRNA levels by antisense oligonucleotides, real-time quantitative PCR). Details: chimeric phosphorothioate oligonucleotides with 2′-MOE wings and deoxy gap, oligonucleotide 150 nM, averaged from two experiments.
Format: cell-based
Method: Cells were harvested 16 hours after oligonucleotide treatment.
Poly(A)+ mRNA was isolated according to Miura et al., Clin. Chem., 1996, 42, 1758-1764. Other methods for poly(A)+ mRNA isolation are taught in, for example, Ausubel, F. M. et al., Current Protocols in Molecular Biology, Volume 1, pp. 4.5.1-4.5.3, John Wiley & Sons, Inc., 1993. […] 60 μL lysis buffer (10 mM Tris-HCl, pH 7.6, 1 mM EDTA, 0.5 M NaCl, 0.5% NP-40, 20 mM vanadyl-ribonucleoside complex) was added to each well, the plate was gently agitated and then incubated at room temperature for five minutes. 55 μL of lysate was transferred to Oligo d(T) coated 96-well plates (AGCT Inc., Irvine Calif.). Plates were incubated for 60 minutes at room temperature, washed 3 times with 200 μL of wash buffer (10 mM Tris-HCl pH 7.6, 1 mM EDTA, 0.3 M NaCl). After the final wash, the plate was blotted on paper towels to remove excess wash buffer and then air-dried for 5 minutes. 60 μL of elution buffer (5 mM Tris-HCl pH 7.6), preheated to 70° C. was added to each well, the plate was incubated on a 90° C. hot plate for 5 minutes, and the eluate was then transferred to a fresh 96-well plate.
PI3K p85 probes and primers were designed to hybridize to the human PI3K p85 sequence, using published sequence information (GenBank accession number M61906, incorporated herein as SEQ ID NO: 1).
Target sites are indicated by nucleotide numbers, as given in the sequence source reference (Genbank accession no. M61906), to which the oligonucleotide binds. All compounds in Table 1 are oligodeoxynucleotides with phosphorothioate backbones (internucleoside linkages) throughout. […] Data are averages from two experiments. If present, “N.D.” indicates “no data”.
In accordance with the present invention, a second series of oligonucleotides targeted to human PI3K p85 were synthesized. Target sites are indicated by nucleotide numbers, as given in the sequence source reference (Genbank accession no. M61906), to which the oligonucleotide binds.
Cytidine residues in the 2′-MOE wings are 5-methylcytidines.
Data were obtained by real-time quantitative PCR as described in other examples herein and are averaged from two experiments. If present, “N.D.” indicates “no data”.

Row | Substance | % Inhibition of PI3K p85 mRNA levels
1 | 28054 (antisense e[5mC]*e[5mC]*eT*eT*dC*dA*dG*dC*dA*dA*dA*dA*dC*dA*eA*eA*eA*e[5mC]) [compound 28054] | 0%
2 | 28053 (antisense eT*eT*e[5mC]*eT*dG*dG*dC*dA*dC*dT*dT*dT*dC*dT*eA*eT*eG*eA) [compound 28053] | 0%
3 | 28046 (antisense eA*eT*e[5mC]*eA*dG*dA*dC*dT*dG*dG*dA*dG*dA*dG*eG*eA*eG*e[5mC]) [compound 28046] | 32%
4 | 28029 (antisense eA*e[5mC]*e[5mC]*eA*dC*dA*dG*dA*dA*dC*dT*dG*dA*dA*eG*eG*eT*eT) [compound 28029] | 57%
5 | 28023 (antisense eG*e[5mC]*eT*eT*dG*dA*dA*dG*dA*dA*dA*dT*dG*dT*eT*eT*eT*eA) [compound 28023] | 43%
6 | 28049 (antisense e[5mC]*e[5mC]*eA*eG*dG*dC*dT*dA*dA*dA*dC*dC*dA*dG*eG*e[5mC]*eT*eG) [compound 28049] | 24%
7 | 28020 (antisense eA*eA*eT*eT*dC*dT*dG*dC*dC*dA*dG*dG*dT*dT*eG*e[5mC]*eT*eG) [compound 28020] | 12%
8 | 28055 (antisense eA*eA*e[5mC]*eT*dG*dA*dA*dA*dT*dA*dA*dC*dA*dA*e[5mC]*eT*eT*eA) [compound 28055] | 14%
9 | 28042 (antisense e[5mC]*eT*eT*eT*dA*dC*dT*dT*dC*dG*dC*dC*dG*dT*e[5mC]*e[5mC]*eA*e[5mC]) [compound 28042] | 0%
10 | 28047 (antisense eA*eA*eA*eG*dA*dA*dG*dG*dG*dA*dT*dA*dA*dG*e[5mC]*eA*e[5mC]*eT) [compound 28047] | 18%
11 | 28034 (antisense eT*eT*e[5mC]*eA*dA*dG*dT*dC*dT*dT*dC*dT*dT*dC*e[5mC]*eA*eA*eT) [compound 28034] | 28%
12 | 28019 (antisense eT*eT*e[5mC]*eA*dA*dT*dG*dG*dC*dT*dT*dC*dC*dA*e[5mC]*eG*eA*eG) [compound 28019] | 6%
13 | 28056 (antisense e[5mC]*e[5mC]*eA*eA*dC*dA*dA*dA*dA*dC*dA*dG*dT*dC*e[5mC]*eA*eA*eA) [compound 28056] | 15%
14 | 28038 (antisense eG*eT*e[5mC]*eT*dT*dC*dA*dG*dT*dG*dT*dT*dT*dT*e[5mC]*eA*eT*eT) [compound 28038] | 0%
15 | 28018 (antisense eG*e[5mC]*eT*eT*dC*dC*dT*dG*dT*dC*dC*dA*dT*dC*eA*e[5mC]*eT*eG) [compound 28018] | 47%
16 | 28028 (antisense eA*eT*eT*e[5mC]*dA*dG*dC*dA*dT*dT*dT*dT*dG*dT*eA*eA*eG*eG) [compound 28028] | 0%
17 | 28021 (antisense eG*eT*eA*eA*dG*dT*dC*dC*dA*dG*dG*dA*dG*dA*eT*eA*eG*e[5mC]) [compound 28021] | 43%
18 | 28051 (antisense eG*eA*e[5mC]*eG*dT*dG*dC*dC*dT*dT*dT*dC*dT*dG*e[5mC]*eT*eA*e[5mC]) [compound 28051] | 53%
19 | 28039 (antisense e[5mC]*eT*eT*eT*dG*dT*dT*dT*dC*dG*dG*dT*dT*dG*e[5mC]*eT*eG*e[5mC]) [compound 28039] | 46%
20 | 28030 (antisense eA*eT*eT*eT*dC*dC*dT*dG*dG*dG*dA*dT*dG*dT*eG*e[5mC]*eG*eG) [compound 28030] | 74%
21 | 28033 (antisense eA*eT*e[5mC]*e[5mC]*dT*dT*dT*dG*dT*dA*dT*dT*dT*dC*eT*eT*eT*e[5mC]) [compound 28033] | 46%
22 | 28035 (antisense eA*eT*eT*eG*dG*dT*dC*dT*dC*dT*dC*dG*dT*dC*eT*eT*eT*e[5mC]) [compound 28035] | 0%

Same assay, conditions: phosphorothioate oligodeoxynucleotides, oligonucleotide 150 nM, averages from two experiments

Row | Substance | % Inhibition of PI3K p85 mRNA levels
23 | 27992 (antisense TTTCTCATTGCCTTCACG; DNA, all phosphorothioate, methylation of C not given here) [compound 27992] | 0%
24 | 28002 (antisense CTTTACTTCGCCGTCCAC; DNA, all phosphorothioate, methylation of C not given here) [compound 28002] | 41%
25 | 28003 (antisense AAAGCCATAGCCAGTTGC; DNA, all phosphorothioate, methylation of C not given here) [compound 28003] | 0%
26 | 27990 (antisense ATTTCCTGGGATGTGCGG; DNA, all phosphorothioate, methylation of C not given here) [compound 27990] | 52%
27 | 27991 (antisense CCGCTCTTGGGTCTGGCA; DNA, all phosphorothioate, methylation of C not given here) [compound 27991] | 71%
28 | 27989 (antisense ACCACAGAACTGAAGGTT; DNA, all phosphorothioate, methylation of C not given here) [compound 27989] | 0%
29 | 27986 (antisense dA*dG*dT*dA*dG*dG*dT*dT*dT*dT*dG*dG*dT*dG*dG*dT*dT*dT) [compound 27986] | 0%
30 | 28013 (antisense TTCTGGCACTTTCTATGA; DNA, all phosphorothioate, methylation of C not given here) [compound 28013] | 28%
31 | 28007 (antisense AAAGAAGGGATAAGCACT; DNA, all phosphorothioate, methylation of C not given here) [compound 28007] | 7%
32 | 27993 (antisense ATCCTTTGTATTTCTTTC; DNA, all phosphorothioate, methylation of C not given here) [compound 27993] | 15%
33 | 27988 (antisense ATTCAGCATTTTGTAAGG; DNA, all phosphorothioate, methylation of C not given here) [compound 27988] | 1%
34 | 27987 (antisense TTATTCATACCGTTGTTG; DNA, all phosphorothioate, methylation of C not given here) [compound 27987] | 4%
35 | 27977 (antisense ATCTTCTTCTCTTTCCTT; DNA, all phosphorothioate, methylation of C not given here) [compound 27977] | 0%
36 | 27980 (antisense AATTCTGCCAGGTTGCTG; DNA, all phosphorothioate, methylation of C not given here) [compound 27980] | 0%
37 | 27996 (antisense TCAACTTCTTTTGCCGAA; DNA, all phosphorothioate, methylation of C not given here) [compound 27996] | 38%
38 | 28016 (antisense CCAACAAAACAGTCCAAA; DNA, all phosphorothioate, methylation of C not given here) [compound 28016] | 6%
